Article PMC12313019, “Fibrotic lung ECM upregulates SDC4/integrin-αvβ1 interaction and the interfering peptide SDC4_87-131 and its derivative peptides alleviate pulmonary fibrosis” (Regenerative Biomaterials, 2025)

How the values were obtained:
integrin-αvβ1 = integrin-αvβ1 (Homo sapiens, UniProt P05556+P06756); test: SPR binding of peptides to integrin-αvβ1 (Biacore 8K+); settings: Biacore 8K+, 25°C, integrin-αvβ1 on CM5 chip, PBS + 0.05% Tween-20, peptide 0.78-100 μM, Figure 7E, small labels, best readings
Chain of integrin-αvβ1 (P06756 31-992 limits assumed): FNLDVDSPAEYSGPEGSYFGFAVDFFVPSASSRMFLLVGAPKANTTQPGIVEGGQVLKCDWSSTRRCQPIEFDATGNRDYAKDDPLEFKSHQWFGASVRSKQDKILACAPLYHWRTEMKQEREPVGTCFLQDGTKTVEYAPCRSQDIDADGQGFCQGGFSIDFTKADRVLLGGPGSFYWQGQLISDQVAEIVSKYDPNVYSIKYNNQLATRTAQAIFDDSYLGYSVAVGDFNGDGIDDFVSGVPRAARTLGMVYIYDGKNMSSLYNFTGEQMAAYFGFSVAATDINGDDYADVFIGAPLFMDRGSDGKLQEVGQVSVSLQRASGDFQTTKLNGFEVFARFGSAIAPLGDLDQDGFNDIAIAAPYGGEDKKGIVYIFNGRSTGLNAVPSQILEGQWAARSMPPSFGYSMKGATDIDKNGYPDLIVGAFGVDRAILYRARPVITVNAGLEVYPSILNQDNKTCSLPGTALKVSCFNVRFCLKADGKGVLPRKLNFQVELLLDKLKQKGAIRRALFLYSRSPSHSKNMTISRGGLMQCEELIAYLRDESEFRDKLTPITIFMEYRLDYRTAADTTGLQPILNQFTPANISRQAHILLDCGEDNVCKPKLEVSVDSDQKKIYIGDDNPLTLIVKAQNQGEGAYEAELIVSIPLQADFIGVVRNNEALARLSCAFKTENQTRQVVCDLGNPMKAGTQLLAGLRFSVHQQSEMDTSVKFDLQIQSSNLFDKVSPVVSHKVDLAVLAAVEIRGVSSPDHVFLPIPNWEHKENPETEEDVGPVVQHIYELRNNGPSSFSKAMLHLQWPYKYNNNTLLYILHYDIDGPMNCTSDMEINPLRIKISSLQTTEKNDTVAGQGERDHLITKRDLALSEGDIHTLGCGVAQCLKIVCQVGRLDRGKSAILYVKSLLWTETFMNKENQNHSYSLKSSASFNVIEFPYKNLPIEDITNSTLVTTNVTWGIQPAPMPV
Chain of integrin-αvβ1 (P05556 21-728 partner limits assumed): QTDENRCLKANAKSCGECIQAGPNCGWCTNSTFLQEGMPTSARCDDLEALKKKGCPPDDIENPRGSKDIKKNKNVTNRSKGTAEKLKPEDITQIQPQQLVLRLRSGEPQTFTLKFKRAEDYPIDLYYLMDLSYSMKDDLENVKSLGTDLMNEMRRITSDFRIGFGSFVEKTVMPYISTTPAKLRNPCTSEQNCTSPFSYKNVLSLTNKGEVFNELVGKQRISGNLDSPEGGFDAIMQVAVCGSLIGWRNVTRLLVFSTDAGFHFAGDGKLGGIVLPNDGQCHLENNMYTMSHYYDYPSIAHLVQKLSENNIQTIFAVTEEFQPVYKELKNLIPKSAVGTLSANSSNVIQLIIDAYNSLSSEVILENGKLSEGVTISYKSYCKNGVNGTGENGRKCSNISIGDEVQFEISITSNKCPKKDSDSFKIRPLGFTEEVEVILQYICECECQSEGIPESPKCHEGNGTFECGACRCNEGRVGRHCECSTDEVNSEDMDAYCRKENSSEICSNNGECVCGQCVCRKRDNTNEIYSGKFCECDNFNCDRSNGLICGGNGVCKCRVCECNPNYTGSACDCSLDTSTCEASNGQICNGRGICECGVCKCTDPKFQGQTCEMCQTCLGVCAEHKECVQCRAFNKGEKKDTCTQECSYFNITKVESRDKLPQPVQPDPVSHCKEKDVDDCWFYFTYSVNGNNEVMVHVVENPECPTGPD
Protocol: The Biacore 8K+ system (GE Healthcare) was used at 25°C. The ligand integrin-αvβ1 (1 mg/mL) was routinely coupled to the sensor chip (Series S Sensor Chip CM5, Cytiva, #100530). The peptide samples SDC4_87-131 and CS-1, -2, -3, -4, -8, -9, -10 were dissolved in PBS, and then, the samples with different concentration gradients (0.78, 1.56, 3.125, 6.25, 12.5, 25, 50, 100 μM) were injected, respectively, under the driving of buffer PBST (PBS + 0.05% Tween-20). The signal intensity was quantified in relative units (RU), and binding affinity was determined using the dissociation constant (Kd). After the experiment, 10 mM glycine-HCl buffer solution (pH = 2) was selected to regenerate the chip surface.

[1] = tested on: integrin-αvβ1, FAK/AKT and PKCα/NF-κB pathways in NIH3T3 cells; test: Western blot of signaling proteins in dECM-stimulated fibroblast; type: cell-based, mouse; settings: dECM, n=3; for protein levels of α-SMA, integrin-αv, p-FAK and p-PKCα: designed peptides
Protocol: (§1) Decellularized lung ECM (dECM) was prepared as described in previous study. 2 × 10^5 cells/mL NIH3T3 cells (mouse […], purchased from the Stem Cell Bank of the Chinese Academy of Sciences, Shanghai, China) were seeded on the dECM slices attached to the bottom of the culture dish and cultured in DMEM medium containing 0.5% fetal bovine serum (Gibco, Waltham, MA, USA) at 37°C and 5% CO2.
20 mg of lung tissue was extracted with RIPA lysis buffer (Roche International Ltd., Bermuda, USA), and the protein concentration was determined using a BCA protein detection kit (Roche). Protein samples were separated by 10% sodium dodecyl sulfate polyacrylamide gel (SDS-PAGE) electrophoresis and transferred to a PVDF membrane. After blocking, the PVDF membrane was incubated with primary antibodies for α-SMA, Integrin-αV, SDC4, Integrin-β1, p-Smad3, FAK, and p-FAK (CST, #19245, #4711, #12236S, #34971, #9520S, #3285S, and #3284S) at 4°C overnight, followed by incubation with secondary antibodies (CST, #7074P2), development with ECL reagent (SAB), and acquisition of images with a chemiluminescence imaging system (ChemiScope 5600).

NIH3T3 cells = test: RT-PCR of fibroblast activation markers, TGF-β1 and inflammatory factors in dECM-stimulated fibroblast; type: cell-based, mouse; settings: for mRNA levels of α-SMA, FN, Col I and TGF-β1: peptide, induced by dECM-Nor and dECM-PF
Protocol: as §1
(§2) Total RNA was extracted from cells or lung tissue (10 mg) using Trizol reagent, and mRNA was reverse transcribed into cDNA using HiScript® II QRT SuperMix for qPCR (Vazyme, #R223-01). Real-time fluorescence quantitative PCR (RT-PCR) was performed using Hieff® qPCR SYB Green Master Mix (YEASEN, #11201ES08) to obtain the Ct value. The 2^−ΔΔCt method was used to obtain the relative expression level of mRNA in each group. Primers (Table 1) were purchased from Sangon Biotech.

pan-integrins = test: FN-coating cell adhesion assay (pan-integrins activation); type: cell-based, mouse; settings: 100 nM, n=4–5
Protocol: 10 μg/mL Fibronectin (Merck, #10838039001) was dissolved in serum-free DMEM medium and dropped into a 96-well plate, 50 μL per well. The plate was incubated at 4 °C overnight. After blocking with 3% bovine serum albumin at room temperature for 30 min, 4×10^4 cells were inoculated into each well. After incubation for 30 min, the cells were washed, fixed, and stained with crystal violet (5 mg/mL) for 30 min. Then after the crystal violet was dissolved, it was detected using an ELISA reader at 595 nm.

[2] = tested on: BLM-induced PF, C57BL/6J mice; test: BLM-induced PF in mice: RT-PCR of lung tissue; type: in vivo, mouse; settings: 1 mg/kg tracheal instillation, q3d, n=4–6
Protocol: (§3) After the mice were anesthetized (1% sodium pentobarbital 50 mg/kg was injected intraperitoneally), 150 μL of bleomycin (BLM, 5 mg/mL, BIO-000001) was inhaled into the lungs of the mice by tracheal inhalation instillation. One day later, the mice were randomly divided into model and drug treatment groups, and the mice in the control group were only subjected to saline inhalation.
(§4) Based on the dosage of SDC2 fragment peptide and our experimental results (Supplementary Figure S10A and B), the dosage schedule of SDC4_87-131 was set as follows: starting on the third day after BLM inhalation, 1 mg/kg, administered via trachea infusion once every three days. And Anti-SDC4(93-121) 8 mg/kg was administered on the third and tenth days (reference dosage).
as §2

fibroblast = test: CCK-8 fibroblast viability/toxicity; type: cell-based, mouse; settings: discussion
Protocol: as §1
(A) Schematic diagram of SDC487-131; (B) Effect of SDC487-131 and GRGDNP on fibroblast proliferation at 48 h was determined by CCK-8 method (n=3); (C) Effect of different concentration of SDC487-131 on fibroblast activation induced by d-PF for 48 h (n=5). Note: **p < 0.01 vs. PBS in d-Nor group; #p < 0.05 vs. PBS in d-PF group. d-Nor: dECM-Nor; d-PF: dECM-PF.
Figure S14. The viability of fibroblast after treated with peptides for 48 h was detected by CCK-8 assay.

[3] = tested on: BLM-induced PF, C57BL/6J mice; test: BLM-induced PF in mice: HE, Masson, hydroxyproline; type: in vivo, mouse; settings: 1 mg/kg tracheal instillation
Protocol: C57BL/6J mice (male, 8-to 9-week old, 18–22 g, SPF grade) were purchased from Shanghai Slake Laboratory Animal Co., Ltd. [SCXK (Hu) 2022-0004, Shanghai, China]. […] The mice were housed in an SPF environment with 22–25°C, 46–65% humidity and 12 h/12 h light-dark alternation, with free access to water and food. This animal experiment was approved by the Experimental Animal Welfare Ethics Committee of Fujian Medical University (No. FJMU IACUC 2021-0465), and was carried out in accordance with the National Research Council's Guide for the Care and Use of Laboratory Animals.
as §3, §4
Lung tissue samples were paraffin-embedded, then sliced and dewaxed, and HE and Masson staining were performed respectively. After dehydration and sealing, images were collected and analyzed using a microscope.
100 mg of lung tissue was accurately weighed and processed according to the instructions of the hydroxyproline assay kit (Nanjing Jiancheng, Nanjing, China), and the absorbance was measured at a wavelength of 550 nm. The data were expressed as micrograms (µg) of hydroxyproline per mg of dry lung tissue.

| Molecule | Kd (integrin-αvβ1) | protein levels of α-SMA, integrin-αv, p-FAK and p-PKCα [1] | effects on FN and Col I mRNA vs SDC4_87-131 (NIH3T3 cells; dECM, n=5) | mRNA levels of α-SMA, FN, Col I and TGF-β1 (NIH3T3 cells; n=5) | inhibition of pan-integrins activation vs SDC4_87-131 (pan-integrins) | other results |
| --- | --- | --- | --- | --- | --- | --- |
| Ac-NHIPERAGSGSQVPTEPKKLSPVEESEDRSNKVSM-NH2 [CS-2] | 29.1 nM |  |  |  |  |  |
| Ac-NHIPERAGSGSQVPTEPKKLSPVEESEDWSNKVSM-NH2 [CS-3] | 64.9 nM | significantly decrease the protein levels | significantly greater than those of SDC4_87-131 | significantly downregulate | stronger than that of SDC4_87-131 |  |
| Ac-NHIPERAGSGSQVPTEPKKLSPVEESEDVSNKVSMTTNVT-NH2 [CS-1] | 12.8 nM |  |  |  |  |  |
| CS(=O)(=O)c1cccc(CNc2nc(Nc3ccc4c(c3)CCC(=O)N4)ncc2C(F)(F)F)c1 [PF-573228, reference compound] |  |  |  |  |  | dECM-PF-induced fibroblast activation and TGF-β1 upregulation (NIH3T3 cells; 1 μM, 3 μM, mRNA levels, n=4): significantly reduced dECM-PF-induced fibroblast activation and TGF-β1 upregulation in a dose-dependent manner |

Second part, led by results:

| Kd (integrin-αvβ1) | Molecule | protein levels of α-SMA, integrin-αv, p-FAK and p-PKCα [1] | effects on FN and Col I mRNA vs SDC4_87-131 (NIH3T3 cells; dECM, n=5) | mRNA levels of α-SMA, FN, Col I and TGF-β1 (NIH3T3 cells; n=5) | inhibition of pan-integrins activation vs SDC4_87-131 (pan-integrins) | other results |
| --- | --- | --- | --- | --- | --- | --- |
| 25.9 nM | Ac-NHIPERAVPTEPKKLSPVEESEDITNSTLV-NH2 [CS-8] | significantly decrease the protein levels | significantly greater than those of SDC4_87-131 | significantly downregulate | stronger than that of SDC4_87-131 |  |
| 10.9 nM | Ac-NHIPETVEDPEPKKLSPVEESEDITNSTLV-NH2 [CS-9] | significantly decrease the protein levels | significantly greater than those of SDC4_87-131 | significantly downregulate | stronger than that of SDC4_87-131 | reduction of α-SMA protein vs SDC4_87-131 [1]: stronger reduction in α-SMA than SDC4_87-131; downregulation of all four mRNAs (α-SMA, FN, Col I, TGF-β1) vs SDC4_87-131 (NIH3T3 cells; dECM, n=5): significantly higher than that of SDC4_87-131; effects on α-SMA, FN and IL-6 vs SDC4_87-131 [2]: significantly stronger than that of SDC4_87-131; toxicity (summary) (fibroblast): low toxicity; inhibitory effect on collagen deposition vs SDC4_87-131 ([3]; q3d from day 3): significantly stronger inhibitory effect on collagen deposition than SDC4_87-131; anti-PF effect vs SDC4_87-131 ([3]; overall, q3d): significantly enhanced anti-PF effect compared with SDC4_87-131 |
| 35.4 nM | Ac-GSADPRAVPTEPKKLSPVEESEDITNSTLV-NH2 [CS-10] | significantly decrease the protein levels | significantly greater than those of SDC4_87-131 | significantly downregulate | stronger than that of SDC4_87-131 |  |
| 32.3 nM | Ac-NHIPERAVPTEPKKLSPVEESEDITNSTLVTTNVT-NH2 [CS-4] | significantly decrease the protein levels | significantly greater than those of SDC4_87-131 | significantly downregulate | stronger than that of SDC4_87-131 | reduction of integrin-αv and p-FAK vs SDC4_87-131 [1]: weaker reduction in integrin-αv and p-FAK compared to SDC4_87-131 |
